Experimental data as given in patent US20260276625A1, “SCREENING METHOD FOR COMPOUND INDUCING AUTOPHAGY” (TOHOKU UNIVERSITY, priority 2023, published 2026).

Legend:
Format in all cases: cell-based
GFP-αSyn-FKBP^F36V = target: T1, GFP-αSyn-FKBP^F36V (Homo sapiens, UniProt P62942, F37V); assay: Mutant FKBP-tagged synuclein degradation test (GFP fluorescence microscopy, HeLa cells); details: 48 hours, compared with untreated group (DMSO)
T1 construct: expressed in transfected cells; host or cells: HeLa
Method: HeLa cells transiently expressing GFP-α-synuclein tagged with a mutant FKBP (GFP-αSyn-FKBP^F36V) were treated with SLF′-AUTAC for 48 hours. In each of the wells of non-treated cells and treated cells, GFP fluorescence was photographed with a fluorescence microscope. Degradation of GFP-αSyn-FKBP^F36V was evaluated from the GFP fluorescence intensity.

DDX5 and p62 = target: T2, DDX5 and p62 (Homo sapiens, UniProt P17844); assay: Droplet formation of DDX5 and p62, immunostaining of HeLa cells expressing GFP-FKBP^F36V; details: 1 μM, 12 hours, fixed cells, anti-DDX5 and anti-p62 antibody
T2 construct: endogenous in cells; host or cells: HeLa (transiently expressing GFP-FKBP^F36V)
From the text: Such a “droplet” can be confirmed by labeling a DEAD-box RNA helicase and/or p62 with a fluorescent label or the like, introducing a test compound into a system in which they exist, preferably treating cells expressing at least one of these with the test compound, and observing the presence of a substance visualized by the label with a fluorescence microscope or the like. In addition, for the purpose of confirming the properties of the liquid in more detail, it is preferable to combine this method with the fluorescence recovery after photobleaching (FRAP).
HeLa cells transiently expressing GFP tagged with a mutant FKBP (GFP-FKBP^F36V) were treated with 1 μM SLF′-AUTAC for 12 hours. The treated cells were fixed with 4% paraformaldehyde, then permeabilized with 0.1% TritonX-100/PBS, blocked with 1% BSA/PBS, immersed in PBS containing 1% rabbit-derived anti-DDX5 antibody and 1% mouse-derived anti-p62 antibody, and incubated at 4° C. overnight. Subsequently, the cells were immersed in PBS containing 1% AlexaFluor555-labeled anti-rabbit IgG and 1% AlexaFluor555-labeled anti-mouse IgG, and incubated at rccm temperature for 1 hour.

RFP-p62 = target: T3, RFP-p62 (Homo sapiens, UniProt P62942+Q13501); assay: Droplet formation, live cell imaging of HeLa cells expressing GFP-FKBP12 and RFP-p62, 1,6-hexanediol; details: 10 μM, 13 hours; disappeared after addition of 5% 1,6-hexanediol
T3 construct: expressed in transfected cells; host or cells: HeLa
Method: (§1) HeLa cells transiently expressing GFP-FKBP12 and RFP-DDX5, or GFP-FKBP12 and RFP-p62 were treated with AUTAC2-2G added in such an amount as to achieve a concentration of 10 μM for 13 hours. The treated cells were subjected to live cell imaging by a fluorescence microscope, and fluorescence derived from GFP and RFP was continuously observed. On the way, 5% 1,6-hexanediol was added 5 minutes after the start of observation to observe whether a dot-like structure in the field of view disappeared.
(§2) 1,6-Hexanediol is known to have an action of eliminating droplets, and this makes it possible to confirm whether the dot-like structure in the field of view of the microscope is a droplet.

RFP-DDX5 = target: T4, RFP-DDX5 (Homo sapiens, UniProt P17844+P62942); assay: Droplet formation, live cell imaging of HeLa cells expressing GFP-FKBP12 and RFP-DDX5, 1,6-hexanediol; details: 10 μM, 13 hours; disappeared after addition of 5% 1,6-hexanediol
T4 construct: expressed in transfected cells; host or cells: HeLa
Method: as §1, §2

T1 sequence (P62942 whole entry F37V): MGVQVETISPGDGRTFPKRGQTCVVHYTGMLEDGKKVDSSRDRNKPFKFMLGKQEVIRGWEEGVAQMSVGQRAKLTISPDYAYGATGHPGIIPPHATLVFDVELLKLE
T3 sequence (Q13501 whole entry): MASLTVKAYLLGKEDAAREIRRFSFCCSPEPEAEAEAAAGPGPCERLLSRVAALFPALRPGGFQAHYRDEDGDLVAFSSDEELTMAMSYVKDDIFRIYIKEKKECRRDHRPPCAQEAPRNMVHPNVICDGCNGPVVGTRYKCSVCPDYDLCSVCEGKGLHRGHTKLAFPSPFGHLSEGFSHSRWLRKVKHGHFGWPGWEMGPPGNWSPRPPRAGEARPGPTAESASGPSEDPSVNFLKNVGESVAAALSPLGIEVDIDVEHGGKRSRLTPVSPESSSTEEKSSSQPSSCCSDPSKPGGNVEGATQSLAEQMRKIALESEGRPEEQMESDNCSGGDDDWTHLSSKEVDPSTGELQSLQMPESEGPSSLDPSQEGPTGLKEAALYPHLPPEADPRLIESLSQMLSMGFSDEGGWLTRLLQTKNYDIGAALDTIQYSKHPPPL
T3 sequence (P62942 whole entry): as the sequence (P62942 whole entry F37V) above, with V37F counted along it
T4 sequence (P17844 whole entry): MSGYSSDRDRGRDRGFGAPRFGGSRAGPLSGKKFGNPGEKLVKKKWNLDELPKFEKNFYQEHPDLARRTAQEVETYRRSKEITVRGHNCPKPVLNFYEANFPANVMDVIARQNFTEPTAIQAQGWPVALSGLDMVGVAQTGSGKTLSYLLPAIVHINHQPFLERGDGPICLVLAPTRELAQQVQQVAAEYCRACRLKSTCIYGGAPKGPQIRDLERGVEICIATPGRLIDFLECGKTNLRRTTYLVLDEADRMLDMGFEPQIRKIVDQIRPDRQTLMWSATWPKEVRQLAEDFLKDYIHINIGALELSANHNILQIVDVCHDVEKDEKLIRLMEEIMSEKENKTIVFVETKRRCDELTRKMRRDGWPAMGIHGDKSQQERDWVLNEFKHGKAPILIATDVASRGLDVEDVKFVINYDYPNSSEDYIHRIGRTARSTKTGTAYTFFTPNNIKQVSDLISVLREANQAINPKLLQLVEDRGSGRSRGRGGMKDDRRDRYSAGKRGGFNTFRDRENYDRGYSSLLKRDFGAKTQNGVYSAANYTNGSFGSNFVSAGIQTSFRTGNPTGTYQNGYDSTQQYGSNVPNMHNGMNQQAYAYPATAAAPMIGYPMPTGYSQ
T4 sequence (P62942 whole entry): as the sequence (P62942 whole entry F37V) above, with V37F counted along it
T2 sequence (P17844 whole entry): as the sequence (P17844 whole entry) above
T2 sequence (Q13501 2-440 partner): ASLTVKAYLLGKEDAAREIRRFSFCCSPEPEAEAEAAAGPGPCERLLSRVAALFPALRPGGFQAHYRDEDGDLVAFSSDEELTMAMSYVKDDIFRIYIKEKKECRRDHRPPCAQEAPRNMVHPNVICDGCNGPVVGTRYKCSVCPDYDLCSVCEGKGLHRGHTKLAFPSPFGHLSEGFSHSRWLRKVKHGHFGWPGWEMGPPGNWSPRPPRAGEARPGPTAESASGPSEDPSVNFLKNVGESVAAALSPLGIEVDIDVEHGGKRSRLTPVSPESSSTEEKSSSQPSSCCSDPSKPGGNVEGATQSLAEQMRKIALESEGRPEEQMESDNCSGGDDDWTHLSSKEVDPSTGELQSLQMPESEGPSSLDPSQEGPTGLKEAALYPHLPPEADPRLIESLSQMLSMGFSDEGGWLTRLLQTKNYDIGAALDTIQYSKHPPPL
T2 sequence (P62942 2-108 F37V partner): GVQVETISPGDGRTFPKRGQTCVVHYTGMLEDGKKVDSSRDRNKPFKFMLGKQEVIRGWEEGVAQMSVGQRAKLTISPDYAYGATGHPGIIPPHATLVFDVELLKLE

Row | SMILES | degradation of GFP-αSyn-FKBP^F36V (GFP fluorescence intensity) (GFP-αSyn-FKBP^F36V; 1 μM) | degradation of GFP-αSyn-FKBP^F36V (GFP fluorescence intensity) (GFP-αSyn-FKBP^F36V; 10 μM) | formation of a droplet containing DDX5 and p62 (DDX5 and p62) | dot-like structure (droplet) containing GFP-FKBP12 and RFP-p62 (RFP-p62) | dot-like structure (droplet) containing GFP-FKBP12 and RFP-DDX5 (RFP-DDX5)
1 | CC[C@H](C(=O)N1CCCC[C@H]1C(=O)O[C@H](CCc1ccc(OC)c(OC)c1)c1cccc(OCC(=O)NCCCOCCOCCOCCCn2cc(-c3nc4c(=O)[nH]c(N)nc4n3Cc3ccc(F)cc3)cn2)c1)c1cc(OC)c(OC)c(OC)c1 [SLF′-AUTAC] | the degradation of GFP-αSyn-FKBP^F36V was observed | the degradation of GFP-αSyn-FKBP^F36V was observed | DDX5 and p62 formed droplets in the cells | – | –
2 | CCC(C)(C)C(=O)C(=O)N1CCCC[C@H]1C(=O)O[C@H](CCc1ccc(OC)c(OC)c1)c1cccc(NC(=O)CCC(=O)NCCCOCCOCCOCCCn2cc(-c3nc4c(=O)[nH]c(N)nc4n3Cc3ccc(F)cc3)cn2)c1 [AUTAC2-2G] | – | – | – | a dot-like structure containing GFP-FKBP12 and RFP-p62 were observed | a dot-like structure containing GFP-FKBP12 and RFP-DDX5
